Assay results from patent publication US8529874B2, “Peptide imaging agents” (GE Healthcare AS, priority 2007, dated 2013).
Bridge positions count the residues as written; N and C are the ends.

Experiments:
mouse c-Met/Fc chimera = biological target: T1, mouse c-Met/Fc chimera (Mus musculus, UniProt P16056); assay: In vitro fluorescence polarisation assay, binding to mouse c-Met; settings: dye-labelled peptide 20 nM, c-Met/Fc 0-150 nM (tested range)
T1 construct: purchased R&D Systems
Experimental: The principle of the fluorescence polarisation method can briefly be described as follows:
Monochromatic light passes through a horizontal polarizing filter and excites fluorescent molecules in the sample. Only those molecules that oriented properly in the vertically polarized plane adsorb light, become excited, and subsequently emit light. The emitted light is measured in both horizontal and vertical planes. The anistropy value (A), is the ratio between the light intensities following the equation
The fluorescence anistropy measurements were performed in 384-well microplates in a volume of 10 μL in binding buffer (PBS, 0.01% Tween-20, pH 7.5) using a Tecan Safire fluorescence polarisation plate reader (Tecan, US) at ex646/em678 nm. The concentration of dye-labelled peptide was held constant (20 nM) and the concentrations of the human or mouse c-Met/Fc chimera (R&D Systems) or Semaphorin 6A (R&D Systems) were varied from 0-150 nM. Binding mixtures were equilibrated in the microplate for 10 min at 30° C. The observed change in anistropy was fit to the equation
[formula] where robs is the observed anistropy, rfree is the anistropy of the free peptide, rbound is the anistropy of the bound peptide, KD is the dissociation constant, cMet is the total c-Met concentration, and P is the total dye-labelled peptide concentration. […]

HCT-15 tumours = assay: In vivo optical imaging of HCT-15 tumour slice against normal colon; parameters: species or system BALB c/A nude (Bom) mice
Text: 54 Female BALB c/A nude (Bom) mice were used in the study. The use of the animals was approved by the local ethics committee. BALB c/A nude is an inbred immunocompromised mouse strain with a high take rate for human tumours as compared to other nude mice strains. The mice were 4 weeks old upon arrival and with a body weight of approx. 20 grams at the start of the study. The animals were housed in individually ventilated cages (IVC, Scanbur BK) with HEPA filtered air. The animals had ad libitum access to “Rat and Mouse nr. 3 Breeding” diet (Scanbur BK) and tap water acidified by addition of HCl to a molar concentration of 1 mM (pH 3.0).
The colon cancer cell HCT-15 is derived from human colon carcinomas and is reported to express c-Met according to Zeng et al [Clin. Exp. Metastasis, 21, 409-417. (2004)]. The cell line was proven to be tumorigenic when inoculated subcutaneously into nude mice [Flatmark et al, Eur. J. Cancer 40, 1593-1598 (2004)].
HCT-15 cells were grown and prepared for subcutaneous inoculation in RPMI (Sigma Cat# R0883) with 10% serum and penicillin/streptomycin. Stocks were made at passage number four (P4) and frozen down for storage in liquid nitrogen at 3×10^7 cells/vial in the culture media containing 5% DMSO. On the day of the transplantation, the cells were thawed quickly in a 37° C. water bath (approx. 2 min), washed and resuspended in PBS/2% serum (centrifugation at 1200 rpm for 10 min). Thorough mixing of cells in the vials was ensured every time cells were aspirated into the dosing syringe. Volumes of 0.1 ml of cell suspension were injected s.c. at the shoulder and at the back using a fine bore needle (25 G) while the animals were under light gas anaesthesia. The animals were then returned to their cages and the tumours were allowed to grow for 13-17 days. […]
Imaging was performed through a clinical laparoscope adapted to use a light source to excite the reporter and a filtering system to extract the fluorescence component. […] The images were visually scored using the standard scoring system employed for receiver operating characteristic analysis.

T1 sequence (P16056 with tags, fused parts or gaps limits assumed): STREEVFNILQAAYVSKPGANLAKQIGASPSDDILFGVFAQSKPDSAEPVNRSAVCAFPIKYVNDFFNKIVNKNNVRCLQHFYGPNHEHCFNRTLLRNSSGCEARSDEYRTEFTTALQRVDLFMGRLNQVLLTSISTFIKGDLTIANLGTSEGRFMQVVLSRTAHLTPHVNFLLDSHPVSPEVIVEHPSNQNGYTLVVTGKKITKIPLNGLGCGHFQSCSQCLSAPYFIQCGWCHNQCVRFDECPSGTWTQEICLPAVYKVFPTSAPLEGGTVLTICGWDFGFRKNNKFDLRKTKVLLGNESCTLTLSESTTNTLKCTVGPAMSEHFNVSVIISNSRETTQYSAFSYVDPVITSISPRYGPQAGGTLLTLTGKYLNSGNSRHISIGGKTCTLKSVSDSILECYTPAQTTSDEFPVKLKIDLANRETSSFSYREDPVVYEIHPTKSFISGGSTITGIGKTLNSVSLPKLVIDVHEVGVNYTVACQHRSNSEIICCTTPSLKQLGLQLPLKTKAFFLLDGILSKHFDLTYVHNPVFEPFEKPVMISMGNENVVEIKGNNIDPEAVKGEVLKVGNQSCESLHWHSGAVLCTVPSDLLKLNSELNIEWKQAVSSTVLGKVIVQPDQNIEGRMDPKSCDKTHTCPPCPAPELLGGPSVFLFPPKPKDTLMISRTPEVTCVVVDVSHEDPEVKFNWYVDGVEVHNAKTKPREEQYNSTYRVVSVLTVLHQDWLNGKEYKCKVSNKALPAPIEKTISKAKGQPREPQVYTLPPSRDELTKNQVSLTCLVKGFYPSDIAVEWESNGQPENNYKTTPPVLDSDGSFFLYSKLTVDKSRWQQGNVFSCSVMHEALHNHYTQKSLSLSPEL

Substance | binding to mouse c-Met (in words) (mouse c-Met/Fc chimera) | visual identification of tumour against background (HCT-15 tumours; 1 nmol per animal i.v., HCT-15 tumour slice vs normal colon) | tumour to normal ratio (HCT-15 tumours; 1 nmol per animal i.v., HCT-15 tumour slice vs normal colon, ex vivo, 635 nm excitation) | tumour: background ratios (summary in words) (HCT-15 tumours; animal model of cancer, Example 7)
Ac-Ala-Gly-Ser-Cys-Tyr-Cys-Ser-Gly-Pro-Pro-Arg-Phe-Glu-Cys-Trp-Cys-Tyr-Glu-Thr-Glu-Gly-Thr-Gly-Gly-Gly-Lys(Cy5)-NH2 (Ac-AGSCYCSGPPRFECWCYETEGTGGGK(Cy5)-NH2; also: two disulfides, pairing not given here) [Compound 3] | no binding |  |  | 
Ac-TGECTCPYWEFRPCECGSYSGAGGGK(ε-Cy5**)-NH2 (Ac-TGECTCPYWEFRPCECGSYSGAGGGK-NH2; disulfide 6-14; disulfide 4-16 (inferred); not fully specified (residue 26); printed as Ac-TGECTCPYWEFRPCECGSYSGAGGGK(ε-Cy5**)-NH2) [Compound 7, negative control; scrambled control peptide with the same dye as Compound 5] |  | nothing was discernible against background | 1.04 | did not discriminate between tumour and background
